Source: patent US8268854B2, “Aza-beta-carbolines and methods of using same” (The UWM Research Foundation, Inc., priority 2008, dated 2012)
Counter-ions that a name gives are not always drawn. Like-named read-outs stand apart in the source and are kept apart here.

Columns and labels:
[1] = molecular target: T1, GABAA receptor α5 subtype with β2 and γ2 subunits (Homo sapiens, UniProt P18507+P31644); test: Competition binding assay with [3H]flunitrazepam
T1 construct: expressed in transfected cells; host or cells: HEKT cell line, transient transfection with Fugene 6
Source text: (§1) Bound radioactivity is quantified by liquid scintillation counting.

[2] = molecular target: T2, GABAA receptor α3 subtype with β2 and γ2 subunits (Homo sapiens, UniProt P18507+P34903); test: Competition binding assay with [3H]flunitrazepam
T2 construct: expressed in transfected cells; host or cells: HEKT cell line, transient transfection with Fugene 6
Source text: as §1

[3] = molecular target: T3, GABAA receptor α1 subtype with β2 and γ2 subunits (Homo sapiens, UniProt P14867+P18507); test: Competition binding assay with [3H]flunitrazepam
T3 construct: expressed in transfected cells; host or cells: HEKT cell line, transient transfection with Fugene 6
Source text: as §1

[4] = molecular target: T4, GABAA receptor α2 subtype with β2 and γ2 subunits (Homo sapiens, UniProt P18507+P47869); test: Competition binding assay with [3H]flunitrazepam
T4 construct: expressed in transfected cells; host or cells: HEKT cell line, transient transfection with Fugene 6
Source text: as §1

Dopamine receptor D2 = molecular target: T5, Dopamine receptor D2 (Homo sapiens, UniProt P14416); test: PDSP secondary radioligand binding assay
T5 construct: expressed in transfected cells
Protocol: Primary and secondary radioligand binding assays are performed. In general, the primary assay is run at very high ligand (compound) concentration as a broad screen to determine whether a compound binds to a particular receptor. If greater than 50% inhibition at 10 μM (high concentration of compound) at a particular receptor is determined, a secondary assay is performed on that receptor. Data from the secondary assay is the binding affinity (Ki value).
This assay is used to test binding to receptors such as the serotonin receptors: 5-HT1A, 5-HT1B, 5-HT1D, 5-HT1E, 5-HT2A, 5-HT2B, 5-HT2C, 5-HT3, 5-HT5A, 5-HT6 and 5-HT7. The protocol is adapted from Roth et al. J. Pharmacol. Exp. Ther. 1986, 238, 480-485 and Roth et al. J. Pharmacol. Exp. Ther. 1994, 268, 1403-1410. The assay buffer is Standard Binding Buffer (50 mM Tris-HCl, 10 mM MgCl2, 0.1 mM EDTA, pH 7.4). The membrane fraction source is transiently or stably transfected cell lines (e.g., HEK293, COS, CHO, NIH3T3).
A solution of the compound to be tested is prepared as a 1 mg/mL stock in Standard Binding Buffer or DMSO according to its solubility. A similar stock of a reference compound (positive control) is also prepared.
Radioligand (see Table 41) is diluted to five times the assay concentration (see Table 21) in Standard Binding Buffer. […]
The 250 μL reactions are incubated at room temperature and shielded from light (to prevent photolysis of light-sensitive ligands) for 1.5 hours, then harvested by rapid filtration onto Whatman GF/B glass fiber filters pre-soaked with 0.3% polyethyleneimine using a 96-well Brandel harvester. […] The tubes are capped, labeled, and counted by liquid scintillation counting. For higher throughput assays, bound radioactivity is harvested onto 0.3% polyethyleneimine-treated, 96-well filter mats using a 96-well Filtermate harvester. The filter mats are dried, then scintillant is melted onto the filters, and the radioactivity retained on the filters is counted in a Microbeta scintillation counter. […]

Row | SMILES | Ki ([1]; [3H]flunitrazepam, α5β2γ2, HEKT cells, read-out: GABAA RECEPTOR BINDING α5) [nM] | Ki ([2]; [3H]flunitrazepam, α3β2γ2, HEKT cells, read-out: GABAA RECEPTOR BINDING α3) [nM] | Ki ([3]; [3H]flunitrazepam, α1β2γ2, HEKT cells, read-out: GABAA RECEPTOR BINDING α1) [nM] | Ki ([4]; [3H]flunitrazepam, α2β2γ2, HEKT cells, read-out: GABAA RECEPTOR BINDING α2) [nM] | Ki (Dopamine receptor D2) [nM] | Ki [1] [nM] | Ki [2] [nM] | Ki [3] [nM] | Ki [4] [nM]
1 | CCCOc1cc2c(cn1)[nH]c1ccncc12 [Compound 2, 8-Propoxypyridino[4′,3′-5,4]pyrrolo[3,2-c]pyridine hydrochloride] | 12.2 | 4.04 | 9.86 | 0.33 | > 10000 |  |  |  | 
2 | CCCOc1cc2c(cn1)[nH]c1cnccc12 [Compound 4, 3-Propoxy pyridino[4′,3′-4,5]pyrrolo[2,3-c]pyridine hydrochloride] |  |  |  |  | > 10000 | 43.1 | 1.49 | 5.79 | 6.31
